Experimental data as given in ChEMBL document CHEMBL1146594, “The leupyrrins: a structurally unique family of secondary metabolites from the myxobacterium Sorangium cellulosum” (J Nat Prod, 2003).
Converted amounts (≈) assume the structure as drawn. The source made the active and inactive calls. No cut-off for these calls is given here.

Tests used:
L929 = assay: Cytotoxicity against mouse L929 cells; type: cell-based
Rhodotorula glutinis [1] = assay: Antifungal activity against Rhodotorula glutinis; type: functional
Mucor hiemalis = assay: Antifungal activity against Mucor hiemalis; type: functional
Rhodotorula glutinis [2] = assay: Inhibition of RNA synthesis in Rhodotorula glutinis assessed as inhibition of [2-14C]uracil incorporation at 2.5 ug/mL after 30 mins; type: functional, organism-based
Rhodotorula glutinis [3] = assay: Inhibition of protein synthesis in Rhodotorula glutinis assessed as inhibition of [U-14C]protein hydrolysate incorporation at 2.5 ug/mL after 30 mins; type: functional, organism-based
Candida albicans = assay: Antifungal activity against Candida albicans; type: functional
Botrytis cinerea = assay: Antifungal activity against Botrytis cinerea; type: functional
Rhodotorula glutinis [4] = assay: Inhibition of DNA synthesis in Rhodotorula glutinis assessed as inhibition of [methyl-3H]thymine incorporation at 2.5 ug/mL after 30 mins; type: functional, organism-based
Aspergillus niger = assay: Antifungal activity against Aspergillus niger; type: functional

MIC (Rhodotorula glutinis [1]): 0.25 µg/mL (≈ 0.338 µM)
MIC (Mucor hiemalis): 0.3 µg/mL (≈ 0.406 µM)
MIC (Candida albicans): > 25 µg/mL
MIC (Botrytis cinerea): 0.8 µg/mL (≈ 1.08 µM)
MIC (Aspergillus niger): 0.8 µg/mL (≈ 1.08 µM)
Structure (SMILES): COCCC/C(C)=C1\COC(CC(C)C)\C1=C/C1N=C2OC1COC(=O)[C@@H](CC(C)C)CC(=O)OC1C(OC(=O)C1(C)CO)/C(C)=C/Cc1ccc2[nH]1 (some centres undefined) [LEUPYRRIN A1]
IC50 (L929): 1 µg/mL (≈ 1.35 µM)
Activity (Rhodotorula glutinis [2]): Active
Activity (Rhodotorula glutinis [3]): Active
Activity (Rhodotorula glutinis [4]): Active
